# According to EP4635500A1, “THERAPEUTIC AGENT FOR BACTERIAL INFECTION” (Sumitomo Pharma Co., Ltd., priority 2022, dated 2024):
# Like-named read-outs stand apart in the source and are kept apart here.
# System: Enterobacterales
# Assay: MIC, broth microdilution, CDC/FDA Antibiotic Resistance Isolate Bank (Example 7, Tables 8, 11, 12)
# Assay type: cell-based
# Details: for MIC: read-out: MIC; for MIC50 / MIC90: carbapenemase-producing Enterobacterales; for MIC50: read-out: MIC50; for MIC90: read-out: MIC90
compound,measurement,setting,value
"NCC[C@H](O)C(=O)N[C@@H]1C[C@H](N)[C@@H](O[C@H]2O[C@H](CN)[C@@H](O)[C@H](O)[C@H]2O)[C@H](O)[C@H]1O[C@H]1O[C@H](CO)[C@@H](O)[C@H](N)[C@H]1O [Amikacin, amikacin]",MIC,"Escherichia coli, KUB No. 5766, AR Bank # 370",4 µg/mL
same,MIC,"Escherichia coli, KUB No. 5767, AR Bank # 371",0.5 µg/mL
same,MIC,"Escherichia coli, KUB No. 5768, AR Bank # 372",2 µg/mL
same,MIC,"Escherichia coli, KUB No. 5769, AR Bank # 373",1 µg/mL
same,MIC,"Escherichia coli, KUB No. 5770, AR Bank # 374",1 µg/mL
same,MIC,"Escherichia coli, KUB No. 5774, AR Bank # 378",1 µg/mL
same,MIC,"Escherichia coli, KUB No. 5779, AR Bank # 433",0.5 µg/mL
same,MIC,"Escherichia coli, KUB No. 5780, AR Bank # 434",16 µg/mL
same,MIC,"Escherichia coli, KUB No. 5781, AR Bank # 435",> 64 µg/mL
same,MIC,"Escherichia, KUB No. 57, AR Bank # 436 (row cut off)",1 µg/mL
same,MIC,"Klebsiella aerogenes, Enterobacter aerogenes, KUB No. 5559, AR Bank # 62",2 µg/mL
same,MIC,"Klebsiella aerogenes, Enterobacter aerogenes, KUB No. 5571, AR Bank # 74",2 µg/mL
same,MIC,"Klebsiella aerogenes, Enterobacter aerogenes, KUB No. 5658, AR Bank # 161",2 µg/mL
same,MIC,"Klebsiella aerogenes, Enterobacter aerogenes, KUB No. 5777, AR Bank # 431",0.5 µg/mL
same,MIC,"Klebsiella oxytoca, KUB No. 5568, AR Bank # 71",0.5 µg/mL
same,MIC,"Klebsiella oxytoca, KUB No. 5644, AR Bank # 147",0.5 µg/mL
same,MIC,"Klebsiella oxytoca, KUB No. 5771, AR Bank # 375",4 µg/mL
same,MIC,"Klebsiella oxytoca, KUB No. 5776, AR Bank # 380",1 µg/mL
same,MIC,"Klebsiella ozaenae, KUB No. 5548, AR Bank# 51",> 64 µg/mL
same,MIC,"Klebsiella ozaenae, KUB No. 5593, AR Bank # 96",8 µg/mL
same,MIC,"Klebsiella pnemnonine, KUB No. 5758, AR Bank # 362",32 µg/mL
same,MIC,"Klebsiella pneumoniae, KUB No. 55, AR Bank# 47",32 µg/mL
same,MIC,"Klebsiella pneumoniae, KUB No. 5531, AR Bank# 34",1 µg/mL
same,MIC,"Klebsiella pneumoniae, KUB No. 5536, AR Bank# 39",4 µg/mL
same,MIC,"Klebsiella pneumoniae, KUB No. 5537, AR Bank# 40",32 µg/mL
same,MIC,"Klebsiella pneumoniae, KUB No. 5538, AR Bank# 41",> 64 µg/mL
same,MIC,"Klebsiella pneumoniae, KUB No. 5540, AR Bank# 43",1 µg/mL
same,MIC,"Klebsiella pneumoniae, KUB No. 5541, AR Bank# 44",16 µg/mL
same,MIC,"Klebsiella pneumoniae, KUB No. 5543, AR Bank# 46",16 µg/mL
same,MIC,"Klebsiella pneumoniae, KUB No. 5546, AR Bank# 49",> 64 µg/mL
same,MIC,"Klebsiella pneumoniae, KUB No. 5563, AR Bank # 66",8 µg/mL
same,MIC,"Klebsiella pneumoniae, KUB No. 5565, AR Bank # 68",64 µg/mL
same,MIC,"Klebsiella pneumoniae, KUB No. 5572, AR Bank # 75",> 64 µg/mL
same,MIC,"Klebsiella pneumoniae, KUB No. 5573, AR Bank # 76",8 µg/mL
same,MIC,"Klebsiella pneumoniae, KUB No. 5576, AR Bank # 79",> 64 µg/mL
same,MIC,"Klebsiella pneumoniae, KUB No. 5577, AR Bank # 80",4 µg/mL
same,MIC,"Klebsiella pneumoniae, KUB No. 5584, AR Bank # 87",1 µg/mL
same,MIC,"Klebsiella pneumoniae, KUB No. 5594, AR Bank # 97",64 µg/mL
same,MIC,"Klebsiella pneumoniae, KUB No. 5595, AR Bank # 98",32 µg/mL
same,MIC,"Klebsiella pneumoniae, KUB No. 5603, AR Bank # 106",> 64 µg/mL
same,MIC,"Klebsiella pneumoniae, KUB No. 5604, AR Bank # 107",> 64 µg/mL
same,MIC,"Klebsiella pneumoniae, KUB No. 5606, AR Bank # 109",8 µg/mL
same,MIC,"Klebsiella pneumoniae, KUB No. 5609, AR Bank # 112",32 µg/mL
same,MIC,"Klebsiella pneumoniae, KUB No. 5610, AR Bank # 113",32 µg/mL
same,MIC,"Klebsiella pneumoniae, KUB No. 5612, AR Bank # 115",0.5 µg/mL
same,MIC,"Klebsiella pneumoniae, KUB No. 5614, AR Bank # 117",32 µg/mL
same,MIC,"Klebsiella pneumoniae, KUB No. 5617, AR Bank # 120",32 µg/mL
same,MIC,"Klebsiella pneumoniae, KUB No. 5622, AR Bank # 125",32 µg/mL
same,MIC,"Klebsiella pneumoniae, KUB No. 5623, AR Bank # 126",4 µg/mL
same,MIC,"Klebsiella pneumoniae, KUB No. 5626, AR Bank # 129",32 µg/mL
same,MIC,"Klebsiella pneumoniae, KUB No. 5632, AR Bank # 135",8 µg/mL
same,MIC,"Klebsiella pneumoniae, KUB No. 5635, AR Bank # 138",> 64 µg/mL
same,MIC,"Klebsiella pneumoniae, KUB No. 5636, AR Bank # 139",> 64 µg/mL
same,MIC,"Klebsiella pneumoniae, KUB No. 5637, AR Bank # 140",> 64 µg/mL
same,MIC,"Klebsiella pneumoniae, KUB No. 5638, AR Bank # 141",> 64 µg/mL
same,MIC,"Klebsiella pneumoniae, KUB No. 5639, AR Bank # 142",> 64 µg/mL
same,MIC,"Klebsiella pneumoniae, KUB No. 5640, AR Bank # 143",> 64 µg/mL
same,MIC,"Klebsiella pneumoniae, KUB No. 5642, AR Bank # 145",16 µg/mL
same,MIC,"Klebsiella pneumoniae, KUB No. 5643, AR Bank # 146",16 µg/mL
same,MIC,"Klebsiella pneumoniae, KUB No. 5645, AR Bank # 148",> 64 µg/mL
same,MIC,"Klebsiella pneumoniae, KUB No. 5649, AR Bank # 152",32 µg/mL
same,MIC,"Klebsiella pneumoniae, KUB No. 5650, AR Bank # 153",> 64 µg/mL
same,MIC,"Klebsiella pneumoniae, KUB No. 5655, AR Bank # 158",2 µg/mL
same,MIC,"Klebsiella pneumoniae, KUB No. 5657, AR Bank # 160",0.5 µg/mL
same,MIC,"Klebsiella pneumoniae, KUB No. 5757, AR Bank # 361",32 µg/mL
same,MIC,"Klebsiella pneumoniae, KUB No. 5759, AR Bank # 363",16 µg/mL
same,MIC,"Klebsiella pneumoniae, KUB No. 5760, AR Bank # 364",16 µg/mL
same,MIC,"Klebsiella pneumoniae, KUB No. 5772, AR Bank # 376",2 µg/mL
same,MIC,"Klebsiella pneumoniae, Klebsiella pneumoniae KUB No. 5784, AR Bank #438",32 µg/mL
same,MIC,"Klebsiella pneumoniae, Klebsiella pneumoniae KUB No. 5797, AR Bank #453",32 µg/mL
same,MIC,"Klebsiella pneumoniae, Klebsiella pneumoniae KUB No. 5809, AR Bank #504",2 µg/mL
same,MIC,"Klebsiella pneumoniae, Klebsiella pneumoniae KUB No. 5810, AR Bank #505",8 µg/mL
same,MIC,"Klebsiella pneumoniae, Klebsiella pneumoniae KUB No. 5811, AR Bank #506",32 µg/mL
same,MIC,"Klebsiella pneumoniae, Klebsiella pneumoniae KUB No. 5812, AR Bank #507",> 64 µg/mL
same,MIC,"Klebsiella pneumoniae, Klebsiella pneumoniae KUB No. 5827, AR Bank #522",4 µg/mL
same,MIC,"Klebsiella pneumoniae, Klebsiella pneumoniae KUB No. 5828, AR Bank #523",8 µg/mL
same,MIC,"Klebsiella pneumoniae, Klebsiella pneumoniae KUB No. 5829, AR Bank #524",16 µg/mL
same,MIC,"Klebsiella pneumoniae, Klebsiella pneumoniae KUB No. 5830, AR Bank #525",32 µg/mL
same,MIC,"Kluyvera ascorbata, KUB No. 5641, AR Bank # 144",4 µg/mL
same,MIC,"Morganella morganii, KUB No. 5554, AR Bank# 57",4 µg/mL
same,MIC,"Morganella morganii, KUB No. 5630, AR Bank # 133",1 µg/mL
same,MIC,"Proteus mirabilis, KUB No. 5556, AR Bank# 59",4 µg/mL
same,MIC,"Proteus mirabilis, KUB No. 5652, AR Bank # 155",1 µg/mL
same,MIC,"Proteus mirabilis, KUB No. 5653, AR Bank # 156",4 µg/mL
same,MIC,"Proteus mirabilis, KUB No. 5656, AR Bank # 159",> 64 µg/mL
same,MIC,"Proteus mirabilis, KUB No. 5773, AR Bank # 377",2 µg/mL
same,MIC,"Proteus mirabilis, KUB No. 5775, AR Bank # 379",8 µg/mL
same,MIC,"Providencia rettgeri, KUB No. 5579, AR Bank # 82",1 µg/mL
same,MIC,"Salmonella enterica, Salmonella Senftenberg, KUB No. 5624, AR Bank # 127",> 64 µg/mL
same,MIC,"Serratia marcescens, KUB No. 5588, AR Bank # 91",1 µg/mL
same,MIC,"Serratia marcescens, KUB No. 5596, AR Bank # 99",1 µg/mL
same,MIC,"Serratia marcescens, KUB No. 5618, AR Bank # 121",2 µg/mL
same,MIC,"Serratia marcescens, KUB No. 5619, AR Bank # 122",1 µg/mL
same,MIC,"Serratia marcescens, KUB No. 5620, AR Bank # 123",1 µg/mL
same,MIC,"Serratia marcescens, KUB No. 5621, AR Bank # 124",2 µg/mL
same,MIC,"Serratia marcescens, KUB No. 5627, AR Bank # 130",2 µg/mL
same,MIC,"Serratia marcescens, KUB No. 5628, AR Bank # 131",1 µg/mL
same,MIC,"Serratia marcescens, Serratia marcescens KUB No. 5822, AR Bank #517",8 µg/mL
same,MIC,"Serratia marcescens, Serratia marcescens KUB No. 5825, AR Bank #520",64 µg/mL
same,MIC,"Serratia marcescens, Serratia marcescens KUB No. 5826, AR Bank #521",2 µg/mL
same,MIC50,Metallo-β-lactamase (N = 47),16 µg/mL
same,MIC90,Metallo-β-lactamase (N = 47),> 64 µg/mL
same,MIC50,Serine carbapenemase (N=61),4 µg/mL
same,MIC90,Serine carbapenemase (N=61),64 µg/mL
